From ChEMBL document CHEMBL5096161, “Medulloblastoma drugs in development: Current leads, trials and drawbacks” (Eur J Med Chem, 2021) come the findings set out here.

Data set [1] is described as follows: Cytotoxicity against human D425 Med cells expressing Glt1-tTA:TRE-MYCN/Luc (GTML) assessed as reduction in cell viability incubated for 72 hrs by Resazurin assay. The format is functional, cell-based. (In general: The colour change of resazurin is a common sign of viable cells or microbes.)
Data set [2] concerns D283 Med. The data set can be described thus: Antitumor activity against human D283 Med cells assessed as inhibition of cell proliferation incubated for 72 hrs by CellTiter-Glo luminescent assay. The format is functional, cell-based.
Data set [3] deals with Daoy. The data set can be described thus: Antitumor activity against human Daoy cells assessed as inhibition of cell proliferation incubated for 72 hrs by CellTiter-Glo luminescent assay. The format is functional, cell-based. In general terms: In ATP-based viability assays light output follows the ATP content of the culture.
A short description of data set [4]: Antiproliferative activity against human pateint derived Medulloblastoma cells assessed as inhibition of cell growth incubated for 72 hrs by Alamar blue dye based fluorescence spectrophotometric assay. The format is functional.
The subject of data set [5] is Daoy. The data set can be described thus: Antiproliferative activity against human Daoy cells assessed as inhibition of cell growth incubated for 72 hrs by Alamar blue dye based fluorescence spectrophotometric assay. The format is functional.
The nature of data set [6]: Inhibition of hedgehog signalling in mouse NIH3T3 cells cotransfected with Gli/RE luciferase reporter gene assessed as Gli luciferase activity preincubated for 15 to 30 mins followed by ShhN stimulation and after 28 hrs by Steady-Glo reagent based luciferase assay. In general terms: In a reporter assay the amount or activity of a reporter protein is the signal.
Data set [7] can be described thus: Prodrug conversion in ICR mouse brain assessed as Cmax of PF403 metabolite at 10 mg/kg, po and measured after 5 mins by LC-MS/MS analysis. The format is ADME, organism-based. Details: dose 10 mg/kg, time 5 min, route po. The following applies: in vivo.
A short description of data set [8]: Inhibition of hedgehog signalling in mouse Shh Light II cells co-transfected with Gli firefly and Renilla-luciferase assessed as reduction in SAG-induced Gli luciferase activity incubated for 24 hrs by dual luciferase reporter assay. The format is cell-based.
The nature of data set [9]: Inhibition of hedgehog signalling in mouse Shh Light II cells transfected with Gli luciferase reporter gene assessed as Gli luciferase activity assessed as luciferase activity by luciferase assay. The format is cell-based.
Data set [10] can be described thus: Ratio of AUC in brain to plasma of C57BL/6 mouse at 2 mg/kg, po and measured after 24 hrs by LC/MS-MS analysis. The format is ADME, organism-based. The following applies: read-out: Ratio AUC.
Data set [11] in a line: Antiproliferative activity against neonatally irradiated Ptch1-/+ mouse medulloblastoma cells assessed as inhibition of cell proliferation. The format is functional, cell-based. The following applies: light or radiation study.
Data set [12] in a line: Inhibition of hedge hog pathway in mouse Sufu-KO-LIGHT cells expressing firefly luciferase reporter gene assessed as inhibition of Gli transcription incubated for 16 hrs by Bright-Glo luciferase assay. The format is cell-based.
The nature of data set [13]: Antitumor activity against human Med-211 FH cells xenografted in athymic nude mouse assessed as tumor regression at 75 mg/kg, po QD for 28 days. The following applies: Med-211FH cell, 672 h, time 28 day, read-out: TGI. The format is functional.
Data set [14] can be described thus: Antitumor activity against human Med-1712FH cells xenografted in athymic nude mouse assessed as tumor regression at 75 mg/kg, po QD for 28 days. The format is functional. The following applies: Med-1712FH cell, 672 h, time 28 day, read-out: TGI.
A short description of data set [15]: Antiproliferative activity against human Med1 cells assessed as reduction in cell viability. The format is functional, cell-based.
The nature of data set [16]: Antiproliferative activity against human Medulloblastoma cells expressing wild type SMO assessed as reduction in cell viability. The format is functional, cell-based.
A short description of data set [17]: Inhibition of hedgehog signalling in mouse Shh Light II cells co-transfected with Gli firefly luciferase assessed as inhibition of Gli luciferase expression measured after 30 hrs by luciferase reporter assay. The format is cell-based.
Data set [18] is described as follows: Antiproliferative activity against human D556 Med cells assessed as inhibition of cell proliferation measured after 4 days by WST-1 assay. The format is functional, cell-based. The following applies: 96 h.
In data set [19] the test system is Daoy. Put plainly: Antiproliferative activity against human Daoy cells assessed as inhibition of cell proliferation measured after 4 days by WST-1 assay. The format is functional, cell-based. The following applies: 96 h.
Data set [20] relates to Daoy. Put plainly: Antiproliferative activity against human Daoy cells assessed as reduction in cell viability by MTT assay. The format is functional, cell-based.
Data set [21] deals with Casein kinase I isoform alpha (Homo sapiens, UniProt P48729). Put plainly: Binding affinity to CK1alpha (unknown origin) using casein as substrate by fluorescence based analysis.
A short description of data set [22]: Inhibition of Wnt/beta-catenin transactivation signalling in Wnt3a stimulated human HEK 293 STF cells harbouring TCF/LEF1 luciferase reporter gene assessed as reduction in luciferase activity by TOPFlash luciferase reporter assay. The format is cell-based.
Data set [23] is described as follows: Inhibition of hedgehog signalling in mouse Shh Light II cells assessed as luciferase activity. The format is cell-based.
For data set [24], the system named is D283 Med. The data set can be described thus: Antiproliferative activity against human D283 Med cells assessed as inhibition of cell proliferation incubated for 48 hrs by MTS assay. The format is functional, cell-based.
Data set [25] is described as follows: Anticancer activity against mouse Ptch+/- MB55 cells assessed as reduction in cell viability incubated for 72 hrs by CellTiter-Glo luminescent assay. The format is functional, cell-based.
Data set [26] can be described thus: Anticancer activity against mouse Ptch+/- MB21 cells assessed as reduction in cell viability incubated for 72 hrs by CellTiter-Glo luminescent assay. The format is functional, cell-based.
A short description of data set [27]: Anticancer activity against mouse Ptch+/- Trp53-/- MB53 cells assessed as reduction in cell viability incubated for 72 hrs by CellTiter-Glo luminescent assay. The format is functional, cell-based.

Each structure is given as a SMILES string. ≈ marks a conversion by molar mass, not a printed value.

Casein kinase I isoform alpha, sequence (P48729 whole entry, canonical isoform): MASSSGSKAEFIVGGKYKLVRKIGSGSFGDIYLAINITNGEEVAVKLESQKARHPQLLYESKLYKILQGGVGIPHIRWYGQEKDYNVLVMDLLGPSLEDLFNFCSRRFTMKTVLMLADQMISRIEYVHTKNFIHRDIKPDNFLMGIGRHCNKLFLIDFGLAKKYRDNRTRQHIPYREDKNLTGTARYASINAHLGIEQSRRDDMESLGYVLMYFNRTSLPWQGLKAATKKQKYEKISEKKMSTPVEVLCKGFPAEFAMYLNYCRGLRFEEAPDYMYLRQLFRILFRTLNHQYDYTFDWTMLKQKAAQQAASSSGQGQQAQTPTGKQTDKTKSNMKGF

In general, IC50 refers to the midpoint of a concentration-inhibition curve. For the molecule `CNC(=O)c1nn(C)c2c1C(C)(C)Cc1cnc(Nc3ccc(N4CCN(C)CC4)cc3)nc1-2` [MILCICLIB], the IC50 in [1] turned out to be 940 nM. For `Cc1c(Cl)cccc1Nc1ccccc1C(=O)O` [TOLFENAMIC ACID], the half-inhibitory concentration (IC50) turned out to be 20.8 µg/mL (≈ 79.5 µM) in the data set with D283 Med [2] and 21.6 µg/mL (≈ 82.5 µM) in the data set with Daoy [3]. In the case of `Cc1cn(-c2cc(NC(=O)c3ccc(C)c(Nc4nccc(-c5cccnc5)n4)c3)cc(C(F)(F)F)c2)cn1` [NILOTINIB], the IC50 came to 5000 nM in [4], 6000 nM in the data set on Daoy [5] and 374 nM in data set [6]. One may read the Cmax as the peak of the concentration-time curve. Take `COc1cc2c3c(c4ccc(OC(=O)C(C)(C)C)cc4c2cc1OC)C[C@@H]1CCCN1C3`: the Cmax in data set [7] is 37.76 ng/mL. Regarding `COc1cc2c(cc1-c1c(C)noc1C)ncc1[nH]c(=O)n([C@H](C)c3ccccn3)c12`, the IC50 in data set [8] was determined as 30 nM. Consider `Cn1c(-c2ccccc2C(F)(F)F)nnc1C12CCC(c3noc(C4CC(F)(F)C4)n3)(CC1)CC2`, for which the concentration for half-maximal inhibition (IC50) in [9] amounted to 1500 nM; in data set [11] it was 300 nM. The Kp at 24 h in data set [10] worked out at 0.6.

As for `CCOc1ccc(-[n+]2cc(-c3ccc(Br)cc3)n3c2CCc2ccccc2-3)cc1`, in data set [12], the half-maximal inhibitory concentration (IC50) was 1420 nM. As to `CC(=O)c1c(C)c2cnc(Nc3ccc(N4CCNCC4)cn3)nc2n(C2CCCC2)c1=O` [PALBOCICLIB], the inhibition in vivo at 75 mg/kg in [13] and in data set [14] was 63% in each case.

For `Cc1sc2c(c1C)C(c1ccc(Cl)cc1)=N[C@@H](CC(=O)OC(C)(C)C)c1nnc(C)n1-2`, the half-maximal inhibitory concentration (IC50) in data set [15] and in data set [16] was 50 nM each time. Regarding `C[C@H](CO)N1C[C@H](C)[C@H](CN(C)S(=O)(=O)c2ccc(Cl)cc2Cl)Oc2c(NC(=O)C3CC3)cccc2C1=O`, the IC50 in data set [17] turned out to be 60 nM. Regarding `O=[As][As+](=O)[O-]` (configuration not stated) [ARSENIC TRIOXIDE], the IC50 (in data set [18]; in the data set with Daoy [19]) was 400 nM in each case. Take `COc1cc2c3c(c4ccc(O)cc4c2cc1OC)C[C@@H]1CCCN1C3`: the IC50 in the data set with Daoy [20] is 0.013 nM. What is called Kd is the free concentration of one partner at which half of the binding sites on the other are occupied at equilibrium, for simple one-to-one binding. `Cc1cc(/C=C/c2ccc3cc(N(C)C)ccc3[n+]2C)c(C)n1-c1ccccc1` had an equilibrium dissociation constant (Kd) in data set [21] of 1 nM. The concentration for half-maximal inhibition (IC50) in data set [22] and in data set [23] was 10 nM in each case. On to `Fc1ccc(CNc2ncnc3c2cnn3CC(Cl)c2ccc(Cl)cc2)cc1` (configuration not stated), for which, in the data set on D283 Med [24], the IC50 worked out at 4890 nM.

Consider `O=C(O)c1ccc2c(c1)nc(Nc1cccc(Cl)c1)c1ccncc12` [SILMITASERTIB], for which the 50% inhibitory concentration (IC50) in data set [25], in data set [26] and in [27] was 2500 nM each time.
